Experimental data: PMC12131194, “Rational design, synthesis, and evaluation of novel polypharmacological compounds targeting NaV1.5, KV1.5, and K2P channels for atrial fibrillation” (The Journal of Biological Chemistry, 2025)

Tests used:
HEK-293 cells = test: MTT cytotoxicity assay; assay type: cell-based, human
Protocol: Another method used to assess cytotoxicity was the MTT assay on HEK293 cells. Initially, the cells were seeded at 3000 cells per well in a 96-well plate. After 24 h, they were exposed to increasing compound concentrations (1, 5, 10, 25, 50, 100, 250 and 500 μM) for 72 h. The cells cultured in a medium supplemented with 10% FBS were the positive control for cell viability. Each condition was evaluated triplicate in independent experiments. The ROCHE Cell Proliferation Kit I, MTT (Cat. no. 11465007001), was used, following the manufacturer's indications. Briefly, 10 μl of the labeling reagent was added, and the plates were incubated at 37 °C for 4 h. Subsequently, 100 μl of solubilization solution was added to each well, and the plates were incubated overnight in the dark. Finally, optical density was measured at 570 nm using a microplate reader (Thermo Fisher Scientific). The optical density measurements were used to calculate cell viability, normalizing the data to the positive control. Results were expressed as a percentage of cell viability relative to this control. The IC50 value was determined by fitting a dose-response curve using a nonlinear regression model with a four-parameter logistic equation. The experimental data analysis was performed using SigmaPlot version 12.0 (Systat Software Inc).

[1] = system: human atrial cardiomyocytes from patients with sinus rhythm (SR); test: Patch-clamp action potential recordings, atrial cardiomyocytes of sinus rhythm patients; assay type: cell-based
Protocol: A total of 10 patients with sinus rhythm (SR) (N = 5) or atrial fibrillation (AF) (N = 5) undergoing open heart surgery for coronary artery bypass grafting, heart valve replacement or heart transplantation were included in the study (Table S7). A written informed consent was given by all patients. The study protocol involving human tissue samples was approved by the responsible Ethics Committee of the Medical Faculty of Heidelberg University (Germany; S-017/2013) and was conducted in accordance with the 1964 Declaration of Helsinki.
The right atrial human tissue samples were transported in chilled Ca^2+-free solution (100 mM NaCl, 10 mM KCl, 1.2 mM KH2PO4, 5 mM MgSO4, 50 mM taurine, 5 mM 3-(N-morpholino)propanesulfonic acid (MOPS), 30 mM 2,3-butanedione monoxime and 20 mM glucose, pH 7.0 with NaOH). After dissection into small chunks, the samples were rinsed for 5 minutes with calcium-free Tyrode's solution, which was oxygenated with 100% O2 at 37 °C. The samples were then digested with collagenase type I (288 U/ml; Worthington) and protease type XXIV (5 mg/ml; Sigma-Aldrich, Steinheim, Germany) for 10 to 15 min, followed by an increase in calcium concentration to 0.2 mM. After an additional 35 min of agitation in protease-free solution, rod-shaped single cardiomyocytes were harvested. The suspension was centrifuged, and the cells were resuspended in storage (“Kraftbrühe”, KB) medium (20 mM KCl, 10 mM KH2PO4, 25 mM glucose, 40 mM D-Mannitol, 70 mM K glutamate, 10 mM β-hydroxybutyrate, 20 mM taurine, 10 mM ethylene glycol tetraacetic acid (EGTA), and 1% albumin) until usage in patch-clamp experiments.
Patch-clamp glass pipettes were fabricated from borosilicate glass (1B120F-4; World Precision Instruments). After back-filling with patch-clamp internal solution (134 mM K gluconate, 6 mM NaCl, 1.2 mM MgCl2, 1 mM Mg-ATP, 10 mM HEPES, pH 7.2 with KOH), tip resistances ranged from 5 to 10 MΩ. All experiments were carried out at room temperature under constant superfusion with patch-clamp extracellular solution containing 137 mM NaCl, 5.4 mM KCl, 1 mM MgCl2, 2 mM CaCl2, 10 mM HEPES, 10 mM glucose (pH 7.3 with NaOH). AP-recordings were performed in current clamp mode: The holding current was adjusted such that the cell’s resting membrane potential was approximately −70 mV at baseline. APs were induced by short (5 ms) depolarizing current pulses at a rate of 0.5 Hz. Data was not adjusted for potential differences caused by liquid junctions, and no leak subtraction was performed.
Data acquisition and analysis were performed using the pCLAMP10 software (Axon Instruments) and statistical analysis was done using Prism 8 (GraphPad Software). Data is presented as the mean ± standard error of the mean (SEM). Statistical comparisons were made using Dunnett’s post hoc test. A p value of < 0.05 was considered significant.

[2] = SR, 1, 6.25 and 12.5 μM, significant at 12.5 μM (p < 0.05)

## CCCCN(CCCC)CC(=O)Nc1ccc(OC)cc1OC [Compound 6f, 2-(dibutylamine)-N-(2,4-dimethoxiphenyl)acetamide]
HEK-293 cells; 72 h
  Concentrations with significant cytotoxic effects (MTT): higher than 129 μM
HEK-293 cells; Homo sapiens, HEK293, 72 h, read-out: IC50 cell viability (MTT)
  IC50: 130 µM
[1]; SR, 6.25 μM
  Resting membrane potential (RMP): slight increase
[1]; SR, 1, 6.25 and 12.5 μM
  APD50 vs baseline: only minor effects
  APD90 vs baseline: only minor effects
[1]; [2]
  Action potential amplitude (APA) vs baseline: concentration-dependent decrease
  Maximal upstroke velocity (dV/dtmax) vs baseline: concentration-dependent decrease
